Laboratory results as given in PubChem BioAssay AID2060889 (Molecular Pharmacology Branch, DTP, NCI, 2025).

System: LG0567-F671-PDC complex spheroids viability
Assay: Anticancer human tumor LG0567-F671-PDC patient-derived lung adenocarcinoma cell line growth inhibition [RAS]
Conditions: for viability, T/C: stronger effect = lower value
Procedure, shortened: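 Multi-cell-type spheroids: tumor cells plus HUVEC endothelial cells and mesenchymal stem cells. RAS-pathway inhibitors were combined with targeted agents, each dosed in half-log steps down from clinical Cmax, or from 10 microM when Cmax was unknown.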
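Note: spheroids exposed to compound for seven days before readout.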
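Throughout, for IC50: luminescence signal used as a proxy for viable cells.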

O=C(c1ccc(F)c(F)c1Nc1ccc(I)cc1F)N1CC(O)([C@@H]2CCCCN2)C1 + CCn1c(-c2cccnc2C(C)OC)c2c3cc(ccc31)N1CCOC(CC(NC(=O)C(C(C)C)N(C)C(=O)C3(F)CCN(C(=O)C#CC(C)(C)N(C)C)CC3)C(=O)N3CCCC(N3)C(=O)OCC(C)(C)C2)C1
IC50 (curve of first compound, second compound 0.000949 µM): < 3.16 nM | IC50 (curve of first compound, second compound 0.003 µM): < 3.16 nM | IC50 (curve of first compound, second compound 0.00949 µM): < 3.16 nM | IC50 (curve of first compound, second compound 0.03 µM): < 3.16 nM | IC50 (curve of first compound, second compound 0.0949 µM): < 3.16 nM | IC50 (curve of first compound, second compound 0.3 µM): < 3.16 nM | viability, T/C (second compound 0.000949 µM, first compound 0.00316 µM): 13.4% | viability, T/C (second compound 0.000949 µM, first compound 0.01 µM): 11.5% | viability, T/C (second compound 0.000949 µM, first compound 0.0316 µM): 9.69% | viability, T/C (second compound 0.000949 µM, first compound 0.1 µM): 6.79% | viability, T/C (second compound 0.000949 µM, first compound 0.316 µM): 3.71% | viability, T/C (second compound 0.000949 µM, first compound 1 µM): 1.41% | viability, T/C (second compound 0.003 µM, first compound 0.00316 µM): 12.6% | viability, T/C (second compound 0.003 µM, first compound 0.01 µM): 11.1% | viability, T/C (second compound 0.003 µM, first compound 0.0316 µM): 9.13% | viability, T/C (second compound 0.003 µM, first compound 0.1 µM): 7.29% | viability, T/C (second compound 0.003 µM, first compound 0.316 µM): 3.35% | viability, T/C (second compound 0.003 µM, first compound 1 µM): 1.31% | viability, T/C (second compound 0.00949 µM, first compound 0.00316 µM): 13.7% | viability, T/C (second compound 0.00949 µM, first compound 0.01 µM): 11.1% | viability, T/C (second compound 0.00949 µM, first compound 0.0316 µM): 7.73% | viability, T/C (second compound 0.00949 µM, first compound 0.1 µM): 7.78% | viability, T/C (second compound 0.00949 µM, first compound 0.316 µM): 3.51% | viability, T/C (second compound 0.00949 µM, first compound 1 µM): 1.48% | viability, T/C (second compound 0.03 µM, first compound 0.00316 µM): 10.9% | viability, T/C (second compound 0.03 µM, first compound 0.01 µM): 10.1% | viability, T/C (second compound 0.03 µM, first compound 0.0316 µM): 7.96% | viability, T/C (second compound 0.03 µM, first compound 0.1 µM): 5.76% | viability, T/C (second compound 0.03 µM, first compound 0.316 µM): 3.19% | viability, T/C (second compound 0.03 µM, first compound 1 µM): 1% | viability, T/C (second compound 0.0949 µM, first compound 0.00316 µM): 8.93% | viability, T/C (second compound 0.0949 µM, first compound 0.01 µM): 7.87% | viability, T/C (second compound 0.0949 µM, first compound 0.0316 µM): 7.13% | viability, T/C (second compound 0.0949 µM, first compound 0.1 µM): 4.53% | viability, T/C (second compound 0.0949 µM, first compound 0.316 µM): 2.24% | viability, T/C (second compound 0.0949 µM, first compound 1 µM): 0.97% | viability, T/C (second compound 0.3 µM, first compound 0.00316 µM): 7.33% | viability, T/C (second compound 0.3 µM, first compound 0.01 µM): 7.35% | viability, T/C (second compound 0.3 µM, first compound 0.0316 µM): 5.27% | viability, T/C (second compound 0.3 µM, first compound 0.1 µM): 3.14% | viability, T/C (second compound 0.3 µM, first compound 0.316 µM): 1.96% | viability, T/C (second compound 0.3 µM, first compound 1 µM): 0.65%

CCn1c(-c2cc(N3CCN(C)CC3)cnc2C(C)OC)c2c3cc(ccc31)-c1csc(n1)CC(NC(=O)C1CC1C)C(=O)N1CCCC(N1)C(=O)OCC(C)(C)C2 (centres undefined)
viability, T/C (compound 0.000949 µM): 25.7% [middle of 8 runs] | viability, T/C (compound 0.003 µM): 11.3% [middle of 8 runs] | viability, T/C (compound 0.00949 µM): 6.53% [middle of 8 runs] | viability, T/C (compound 0.03 µM): 4.27% [middle of 8 runs] | viability, T/C (compound 0.0949 µM): 3.45% [middle of 8 runs] | viability, T/C (compound 0.3 µM): 2.94% [middle of 8 runs] | IC50 (compound alone, run of 08/26/2024): < 0.949 nM

CC(C)n1nc(-c2ccc3oc(N)nc3c2)c2c(N)ncnc21
viability, T/C (compound 0.000316 µM): 90.9% [middle of 4 runs] | viability, T/C (compound 0.001 µM): 88.4% [middle of 4 runs] | viability, T/C (compound 0.00316 µM): 86.1% [middle of 4 runs] | viability, T/C (compound 0.01 µM): 75.3% [middle of 4 runs] | viability, T/C (compound 0.0316 µM): 56.1% [middle of 4 runs]
